Several values for one entry are separate records, joined by “and”; a condition that tells them apart may be missing. Identical values can stand only once.
Conditions: Torsion effusion method

[Br][Yb]([Br])[Br] [ytterbium tribromide]
Crystal
Conditions	vapor or sublimation pressure
891 K	4.7e-05 kPa
897 K	7.9e-05 kPa and 6.3e-05 kPa
905 K	9.3e-05 kPa and 6.3e-05 kPa
906 K	0.000126 kPa
909 K	0.00011 kPa
912 K	7.9e-05 kPa
913 K	0.00011 kPa
915 K	0.000158 kPa
916 K	0.000158 kPa
920 K	0.000126 kPa
923 K	0.000158 kPa and 0.000219 kPa
924 K	0.000219 kPa
926 K	0.000219 kPa
928 K	0.000191 kPa
929 K	0.000158 kPa
932 K	0.000316 kPa
933 K	0.000316 kPa
934 K	0.000347 kPa
936 K	0.000251 kPa and 0.000219 kPa
937 K	0.000347 kPa
938 K	0.000282 kPa
940 K	0.000427 kPa
942 K	0.000437 kPa
943 K	0.000468 kPa
945 K	0.000468 kPa and 0.000331 kPa
946 K	0.000347 kPa
947 K	0.00038 kPa
948 K	0.000562 kPa
952 K	0.000631 kPa
953 K	0.000692 kPa
954 K	0.000631 kPa
955 K	0.000525 kPa
956 K	0.000537 kPa and 0.000501 kPa
958 K	0.000794 kPa
963 K	0.000851 kPa
964 K	0.000933 kPa
965 K	0.000759 kPa [middle of 4 runs]
969 K	0.001122 kPa
972 K	0.001175 kPa
973 K	0.000977 kPa and 0.001259 kPa
974 K	0.000933 kPa and 0.00138 kPa
975 K	0.000977 kPa
978 K	0.001585 kPa
979 K	0.001122 kPa
980 K	0.001585 kPa
982 K	0.001698 kPa
983 K	0.00138 kPa
984 K	0.001349 kPa
985 K	0.001995 kPa
988 K	0.002042 kPa
990 K	0.002188 kPa
991 K	0.001622 kPa
992 K	0.001905 kPa
993 K	0.00257 kPa
994 K	0.001905 kPa
995 K	0.002754 kPa
997 K	0.002692 kPa
1000 K	0.002399 kPa
1002 K	0.002512 kPa
1003 K	0.003631 kPa
1006 K	0.003467 kPa
1008 K	0.004169 kPa
1009 K	0.003162 kPa
1012 K	0.003388 kPa
1013 K	0.004677 kPa
1018 K	0.003981 kPa
1021 K	0.004365 kPa and 0.00631 kPa
1022 K	0.006457 kPa
1026 K	0.005012 kPa
1032 K	0.005754 kPa

[Cl][Yb]([Cl])[Cl] [ytterbium trichloride]
Crystal
Conditions	vapor or sublimation pressure
944 K	0.000158 kPa
950 K	0.000126 kPa
952 K	0.000126 kPa
953 K	0.000158 kPa
958 K	0.000158 kPa and 0.000282 kPa
961 K	0.000219 kPa
962 K	0.000191 kPa
966 K	0.000191 kPa and 0.000251 kPa
970 K	0.000251 kPa
972 K	0.000251 kPa
974 K	0.000347 kPa and 0.000316 kPa
975 K	0.000316 kPa and 0.000501 kPa
976 K	0.000282 kPa
980 K	0.00038 kPa
981 K	0.00038 kPa
982 K	0.000437 kPa and 0.00038 kPa
983 K	0.000437 kPa
986 K	0.000407 kPa
990 K	0.000603 kPa and 0.000468 kPa and 0.000537 kPa
992 K	0.000562 kPa
993 K	0.000871 kPa
994 K	0.000631 kPa
996 K	0.000631 kPa
999 K	0.000759 kPa and 0.000692 kPa
1000 K	0.000794 kPa and 0.000759 kPa
1001 K	0.000724 kPa
1005 K	0.000851 kPa and 0.001349 kPa
1007 K	0.001 kPa
1008 K	0.000912 kPa
1010 K	0.000977 kPa and 0.001 kPa
1015 K	0.001175 kPa and 0.00123 kPa
1016 K	0.001413 kPa
1017 K	0.00123 kPa and 0.001905 kPa
1019 K	0.001318 kPa
1020 K	0.001349 kPa and 0.001549 kPa
1023 K	0.001514 kPa
1026 K	0.001622 kPa
1029 K	0.001698 kPa
1030 K	0.002884 kPa
1035 K	0.002188 kPa
1036 K	0.002089 kPa and 0.002344 kPa and 0.002239 kPa
1038 K	0.002239 kPa and 0.002188 kPa
1044 K	0.002692 kPa and 0.00302 kPa and 0.004571 kPa
1046 K	0.002884 kPa
1048 K	0.00302 kPa
1050 K	0.003388 kPa
1052 K	0.003802 kPa
1053 K	0.003802 kPa
1054 K	0.003981 kPa
1055 K	0.003802 kPa and 0.006761 kPa
1057 K	0.004074 kPa
1062 K	0.005129 kPa and 0.005012 kPa
1063 K	0.004677 kPa and 0.004898 kPa and 0.005012 kPa
1064 K	0.004898 kPa
1071 K	0.005888 kPa and 0.006761 kPa and 0.006918 kPa
1072 K	0.00631 kPa and 0.006918 kPa and 0.006457 kPa
1079 K	0.008318 kPa
1081 K	0.008913 kPa and 0.00912 kPa
1082 K	0.00871 kPa
1087 K	0.01 kPa
1088 K	0.01202 kPa and 0.01148 kPa
1090 K	0.01202 kPa
1096 K	0.01349 kPa

[I][Yb][I] [ytterbium(II) iodide]
Conditions	vapor or sublimation pressure
968 K, Crystal	1.9e-05 kPa
975 K, Crystal	2.8e-05 kPa
976 K, Crystal	2.8e-05 kPa
978 K, Crystal	3.8e-05 kPa
982 K, Crystal	3.8e-05 kPa
987 K, Crystal	3.8e-05 kPa
989 K, Crystal	3.8e-05 kPa and 4.8e-05 kPa and 5.6e-05 kPa
991 K, Crystal	4.8e-05 kPa
996 K, Crystal	5.6e-05 kPa and 6.6e-05 kPa
997 K, Crystal	6.3e-05 kPa
998 K, Crystal	5.6e-05 kPa
999 K, Crystal	5.6e-05 kPa
1003 K, Crystal	6.3e-05 kPa
1005 K, Crystal	8.5e-05 kPa
1006 K, Crystal	7.6e-05 kPa and 7.9e-05 kPa
1008 K, Crystal	6.3e-05 kPa and 7.6e-05 kPa
1011 K, Crystal	8.5e-05 kPa
1013 K, Crystal	7.9e-05 kPa and 0.000115 kPa
1014 K, Crystal	9.3e-05 kPa
1015 K, Crystal	9.5e-05 kPa
1017 K, Crystal	9.5e-05 kPa
1019 K, Crystal	9.3e-05 kPa
1020 K, Crystal	0.000115 kPa
1021 K, Crystal	0.000141 kPa
1022 K, Crystal	0.000126 kPa
1023 K, Crystal	0.00011 kPa
1025 K, Crystal	0.000132 kPa
1026 K, Crystal	0.000132 kPa
1029 K, Crystal	0.000126 kPa
1030 K, Crystal	0.000158 kPa and 0.000151 kPa and 0.000182 kPa
1034 K, Crystal	0.00017 kPa
1035 K, Crystal	0.000158 kPa and 0.00017 kPa and 0.000182 kPa
1038 K, Crystal	0.000219 kPa
1039 K, Crystal	0.000174 kPa and 0.000204 kPa
1040 K, Crystal	0.000209 kPa
1043 K, Crystal	0.000229 kPa [middle of 4 runs]
1046 K, Crystal	0.000282 kPa
1049 K, Crystal	0.000234 kPa and 0.000282 kPa
1068 K, Liquid	0.000468 kPa
1073 K, Liquid	0.000501 kPa
1078 K, Liquid	0.000631 kPa
1082 K, Liquid	0.000631 kPa
1087 K, Liquid	0.000759 kPa
1092 K, Liquid	0.000813 kPa
1098 K, Liquid	0.001 kPa
1101 K, Liquid	0.001 kPa
1103 K, Liquid	0.001202 kPa
1108 K, Liquid	0.00138 kPa
1111 K, Liquid	0.001259 kPa
1112 K, Liquid	0.001445 kPa
1117 K, Liquid	0.001698 kPa
1119 K, Liquid	0.001585 kPa
1122 K, Liquid	0.001862 kPa
1127 K, Liquid	0.002138 kPa
1128 K, Liquid	0.001995 kPa
1132 K, Liquid	0.002239 kPa
1137 K, Liquid	0.002754 kPa
1138 K, Liquid	0.002512 kPa
1143 K, Liquid	0.002951 kPa
1148 K, Liquid	0.003388 kPa and 0.00309 kPa
1152 K, Liquid	0.003548 kPa
1158 K, Liquid	0.004365 kPa and 0.003981 kPa
1162 K, Liquid	0.004786 kPa
1168 K, Liquid	0.005754 kPa and 0.005129 kPa
1173 K, Liquid	0.006026 kPa
1179 K, Liquid	0.006918 kPa and 0.006761 kPa
1183 K, Liquid	0.007586 kPa
1189 K, Liquid	0.00871 kPa
1192 K, Liquid	0.008913 kPa

Source: the NIST ThermoML archive (doi:10.1021/je049579x)
